Experiments:
Format in all cases: cell-based
[1] = tested on: Pseudomonas aeruginosa (PA); test: MIC determination; conditions: Pseudomonas aeruginosa, 18 h, read-out: Minimum Inhibitory Concentrations, PA
Procedure: (§1) Sterile technique was used throughout these experiments. Suspensions of organisms were removed from storage (−80° C.) and partially thawed. Partially thawed organisms (1 μL) were inoculated into 3 mL sterile LB Broth in a sterile culture tube and capped, then cultured at 37° C. with shaking for 4-5 hours until the optical density at 600 nm (OD600) was greater than 0.1 on a single beam spectrophotometer.
(§2) The concentration of organisms was adjusted to 0.08-0.1 OD600 (0.5 McFarland units) by dilution with sterile cation-adjusted Meuller-Hinton (CAMH) broth. The suspensions were used within 30 minutes of preparation.
(§3) A stock solution was made of each test compound by measuring 6.4 mg of the compound on an analytical balance and dissolving it in DMSO (1 mL) to get a transparent solution. The solutions were stored at −20° C. and thawed prior to use.
(§4) Sterile CAMH broth (200 μL) containing 20 μM Apo-Transferrin was pipetted into the first row of 8 columns of a sterile, round-bottomed, transparent, 96-well microplate using an 8-channel pipette equipped with sterile tips. One hundred μL was pipetted into the wells of the remaining 11 rows.
(§5) With an 8-channel pipette equipped with sterile tips, 100 μL of the first row solution was transferred to the second row and mixed. The process was repeated for the second to third rows and continued through row 11. One hundred μL from row 11 was removed and discarded so that all 12 rows contained 100 μL. Row 12 contained no compound and rows 1-11 contained 64, 32, 16, 8, 4, 2, 1, 0.5, 0.25, 0.125, […] of a given compound.
(§6) Inoculant suspensions (0.5 μL) were added to the 12 wells of each column. The plates were then covered and incubated at 37° C. overnight for 18 hours.
(§7) For each organism the MIC was determined by identifying the transparent well with the lowest test compound concentration.

[2] = tested on: Pseudomonas aeruginosa PA (RR-1); test: MIC determination; conditions: Pseudomonas aeruginosa, 18 h, read-out: Minimum Inhibitory Concentrations, PA (RR-1)
Procedure: as §1, §2, §3, §4, §5, §6, §7

[3] = tested on: Pseudomonas aeruginosa PA (RR-2); test: MIC determination; conditions: Pseudomonas aeruginosa, 18 h, read-out: Minimum Inhibitory Concentrations, PA (RR-2)
Procedure: as §1, §2, §3, §4, §5, §6, §7

[4] = tested on: Pseudomonas aeruginosa PA (URMC-2); test: MIC determination; conditions: Pseudomonas aeruginosa, 18 h, read-out: Minimum Inhibitory Concentrations, PA (URMC-2)
Procedure: as §1, §2, §3, §4, §5, §6, §7

[5] = tested on: Pseudomonas aeruginosa PA (URMC-3); test: MIC determination; conditions: Pseudomonas aeruginosa, 18 h, read-out: Minimum Inhibitory Concentrations, PA (URMC-3)
Procedure: as §1, §2, §3, §4, §5, §6, §7

[6] = tested on: Pseudomonas aeruginosa PA-RR-(980151052); test: MIC determination; conditions: Pseudomonas aeruginosa, 18 h, read-out: Minimum Inhibitory Concentrations, PA-RR-(980151052)
Procedure: as §1, §2, §3, §4, §5, §6, §7

[7] = tested on: Pseudomonas aeruginosa PA-RR-(98023895); test: MIC determination; conditions: Pseudomonas aeruginosa, 18 h, read-out: Minimum Inhibitory Concentrations, PA-RR-(98023895)
Procedure: as §1, §2, §3, §4, §5, §6, §7

[8] = tested on: Pseudomonas aeruginosa PA-RR-(G7294437); test: MIC determination; conditions: Pseudomonas aeruginosa, 18 h, read-out: Minimum Inhibitory Concentrations, PA-RR-(G7294437)
Procedure: as §1, §2, §3, §4, §5, §6, §7

[9] = tested on: Pseudomonas aeruginosa PA-RR-(G7304100); test: MIC determination; conditions: Pseudomonas aeruginosa, 18 h, read-out: Minimum Inhibitory Concentrations, PA-RR-(G7304100)
Procedure: as §1, §2, §3, §4, §5, §6, §7

[10] = tested on: Pseudomonas aeruginosa PA-RR-(G7305586); test: MIC determination; conditions: Pseudomonas aeruginosa, 18 h, read-out: Minimum Inhibitory Concentrations, PA-RR-(G7305586)
Procedure: as §1, §2, §3, §4, §5, §6, §7

[11] = tested on: Pseudomonas aeruginosa PA-RR-(G8062859); test: MIC determination; conditions: Pseudomonas aeruginosa, 18 h, read-out: Minimum Inhibitory Concentrations, PA-RR-(G8062859)
Procedure: as §1, §2, §3, §4, §5, §6, §7

[12] = tested on: Pseudomonas aeruginosa PA-RR-(purple Fre D); test: MIC determination; conditions: Pseudomonas aeruginosa, CAMH broth, 20 μM Apo-Transferrin, 37° C., 18 hours, read-out: Minimum Inhibitory Concentrations, PA-RR-(purple Fre D)
Procedure: as §1, §2, §3, §4, §5, §6, §7

E. coli J53 Alone = test: MIC determination, isogenic E. coli strains
Procedure: as §1, §2, §3, §4, §5, §6, §7
(§8) The gene sequence for each beta-lactamase enzyme was synthesized and inserted into the pBC-SK(+) plasmid by GenScript, a commercial service. E. coli J53 was transformed with each plasmid via electroporation and resistant transformants were selected on agar plates containing 50 micrograms/mL ampicillin. The selected transformants were stored at −80 degrees C. in 20% glycerol.

[13] = tested on: Isogenic E. coli J58 strain carrying DHA-1; test: MIC determination, isogenic E. coli strains; conditions: Escherichia coli, 18 h, read-out: Mimimum Inhibitory Concentrations, DHA-1
Procedure: as §1, §2, §3, §4, §5, §6, §7, §8

[14] = tested on: Isogenic E. coli J58 strain carrying TEM-26; test: MIC determination, isogenic E. coli strains; conditions: Escherichia coli, 18 h, read-out: Mimimum Inhibitory Concentrations, TEM-26
Procedure: as §1, §2, §3, §4, §5, §6, §7
TEM-26 (Group 2be beta-lactamase, hydrolyzes extended spectrum cephalosporins and monobactams), [25];
as §8

[15] = tested on: Isogenic E. coli J58 strain carrying SHV-1; test: MIC determination, isogenic E. coli strains; conditions: Escherichia coli, 18 h, read-out: Mimimum Inhibitory Concentrations, SHV-1
Procedure: as §1, §2, §3, §4, §5, §6, §7
SHV-1 (Class A, Group 2b beta-lactamase, hydrolyzes penicillins and early cephalosporins);
as §8

[16] = tested on: Isogenic E. coli J58 strain carrying CTX-M-14; test: MIC determination, isogenic E. coli strains; conditions: Escherichia coli, 18 h, read-out: Mimimum Inhibitory Concentrations, CTX-M-14
Procedure: as §1, §2, §3, §4, §5, §6, §7
(§9) CTX-M-14 and CTX-M-15 (Class A, Group 2be beta-lactamases, hydrolyzes extended spectrum cephalosporins and monobactams);
as §8

[17] = tested on: Isogenic E. coli J58 strain carrying CTX-M-15; test: MIC determination, isogenic E. coli strains; conditions: Escherichia coli, 18 h, read-out: Mimimum Inhibitory Concentrations, CTX-M-15
Procedure: as §1, §2, §3, §4, §5, §6, §7, §9, §8

[18] = tested on: Isogenic E. coli J58 strain carrying KPC-2; test: MIC determination, isogenic E. coli strains; conditions: Escherichia coli, 18 h, read-out: Mimimum Inhibitory Concentrations, KPC-2
Procedure: as §1, §2, §3, §4, §5, §6, §7
(§10) KPC-2 and KPC-3 (Class A, Group 2f, carbapenemases);
as §8

[19] = tested on: Isogenic E. coli J58 strain carrying KPC-3; test: MIC determination, isogenic E. coli strains; conditions: Escherichia coli, 18 h, read-out: Mimimum Inhibitory Concentrations, KPC-3
Procedure: as §1, §2, §3, §4, §5, §6, §7, §10, §8

[20] = tested on: Isogenic E. coli J58 strain carrying NDM-1; test: MIC determination, isogenic E. coli strains; conditions: Escherichia coli, 18 h, read-out: Mimimum Inhibitory Concentrations, NDM-1
Procedure: as §1, §2, §3, §4, §5, §6, §7
NDM-1 (Group 3a carbapenemase, broad spectrum divalent Zn^++ metallo-Beta-Lactamase);
as §8

[21] = tested on: Isogenic E. coli J58 strain carrying VIM-2; test: MIC determination, isogenic E. coli strains; conditions: Escherichia coli, 18 h, read-out: Mimimum Inhibitory Concentrations, VIM-2
Procedure: as §1, §2, §3, §4, §5, §6, §7
VIM-2 (Group 3a carbapenemase, metallo-beta-lactamase); and
as §8

[22] = tested on: Isogenic E. coli J58 strain carrying IMP-1; test: MIC determination, isogenic E. coli strains; conditions: Escherichia coli, 18 h, read-out: Mimimum Inhibitory Concentrations, IMP-1
Procedure: as §1, §2, §3, §4, §5, §6, §7
IMP-1 (Group 3a carbapenemase, metallo-beta-Lactamase).
as §8

## CC[N+]1(Cc2ccc(C=CC3=C(C(=O)O)N4C(=O)[C@@H](NC(=O)/C(=N\OC(C)(C)C(=O)O)c5csc(N)n5)[C@H]4SC3)cc2)CCc2cc(O)c(O)cc2C1 (mixture of isomers) [Compound 423, 2-(4-((E/Z)-2-((6R,7R)-7-((Z)-2-(2-aminothiazol-4-yl)-2-(((2-carboxypropan-2-yl)oxy)imino)acetamido)-2-carboxy-8-oxo-5-thia-1-azabicyclo[4.2.0]oct-2-en-3-yl)vinyl)benzyl)-2-ethyl-6,7-dihydroxy-1,2,3,4-tetrahydroisoquinolin-2-ium]
[1]
  MIC: 2 µg/mL
[2]
  MIC: 2 µg/mL
[3]
  MIC: 2 µg/mL
[4]
  MIC: 2 µg/mL
[5]
  MIC: ≤ 0.06 µg/mL
[6]
  MIC: 2 µg/mL
[7]
  MIC: 8 µg/mL
[8]
  MIC: 0.5 µg/mL
[9]
  MIC: ≤ 0.06 µg/mL
[10]
  MIC: 8 µg/mL
[11]
  MIC: 2 µg/mL
[12]
  MIC: 1 µg/mL
E. coli J53 Alone; Escherichia coli, J53ALONE, 18 h, read-out: Mimimum Inhibitory Concentrations, J53 Alone
  MIC: 0.25 µg/mL
E. coli J53 Alone; J53 Alone, Table 4-2, CAMH broth, 20 μM Apo-Transferrin, 37° C., 18 hours
  Mimimum Inhibitory Concentrations, J53 Alone: 0.25 microgram/mL
[13]
  MIC: 1 µg/mL
[14]
  MIC: 2 µg/mL
[15]
  MIC: 2 µg/mL
[16]
  MIC: 2 µg/mL
[17]
  MIC: 2 µg/mL
[18]
  MIC: 8 µg/mL
[19]
  MIC: 4 µg/mL
[20]
  MIC: > 64 µg/mL
[21]
  MIC: 0.5 µg/mL
[22]
  MIC: 32 µg/mL
